How the values were obtained:
[1] = tested on: thromboxane synthetase; details: prior art compounds, as noted in British patent specification; cited from earlier work
[2] = target: T1, TXA2 synthetase (Homo sapiens, UniProt P24557); assay: TXA2 inhibition test: TXA2 generated from PGH2 with human platelet microsomes, response of superfused rabbit aortic strips; format: biochemical; details: rabbit aorta response
T1 construct: human platelet microsomes (HPM); from tissue; host or cells: human platelet microsomes
T1 sequence (P24557 1-533): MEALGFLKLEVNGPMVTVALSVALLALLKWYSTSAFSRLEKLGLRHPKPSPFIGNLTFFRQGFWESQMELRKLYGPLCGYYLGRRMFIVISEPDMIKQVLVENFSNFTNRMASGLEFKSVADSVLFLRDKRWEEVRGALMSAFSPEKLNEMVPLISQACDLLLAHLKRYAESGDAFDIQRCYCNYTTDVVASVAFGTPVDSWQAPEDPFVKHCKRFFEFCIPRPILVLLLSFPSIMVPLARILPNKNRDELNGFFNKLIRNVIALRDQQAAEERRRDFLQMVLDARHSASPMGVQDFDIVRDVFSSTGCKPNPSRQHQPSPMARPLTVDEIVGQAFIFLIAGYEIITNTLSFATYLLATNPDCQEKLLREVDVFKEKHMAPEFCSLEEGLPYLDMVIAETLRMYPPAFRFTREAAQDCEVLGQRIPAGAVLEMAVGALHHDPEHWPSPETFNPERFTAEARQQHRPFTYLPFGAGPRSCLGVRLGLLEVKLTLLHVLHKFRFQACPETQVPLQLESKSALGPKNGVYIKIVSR
Description: The compounds of the present invention were tested for TXA2 inhibition as follows:
Rabbit aortic strips were superfused in series with Krebs solution. Thromboxane A2 (TXA2) was generated by mixing prostaglandin H2 (PGH2) with human platelet microsomes (HPM).
Potential inhibitors were tested by comparing the response of the rabbit aorta to the amount of TXA2 produced by mixing PGH2 and HPM without the test compound in the reaction medium and then the amount of TXA2 produced when the test compound was added to the HPM 5 minutes before the HPM was mixed with PGH2. […] For a discussion of TXA2 synthetase inhibition testing see, e.g., R. Gorman, supra.

Molecule	inhibitory activity on thromboxane synthetase (in words) [1]	effectiveness in inhibiting TXA2 formation (in words) [2]
CCCCCC=CC[C@@H](C=CC=CCC=CCCCC(=O)O)OO [12L-hydroperoxy-5,8,10,14-eicosatetraenoic acid]	very weak	–
c1cncc(-c2ccc3c(c2)CN2CN3Cc3cc(-c4cccnc4)ccc32)c1 [Example 1, 2,8-Di(3-pyridyl)-6H,12H-5,11-methanodibenzo[b,f][1,5]diazocine]	–	most effective
CC(Cc1ccc(O)c(O)c1)C(C)Cc1ccc(O)c(O)c1 (stereo not shown) [nordihydroguaiaretic acid]	very weak	–
sodium p-benzyl-4(1-oxo-2-(4-chlorobenzyl)-3-phenylpropyl)phenyl phosphate	very weak	–

Source: US4447607A, “Dibenzo diazacines” (The Upjohn Company, priority 1982, dated 1984)
